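48-hour exposure; five concentrations; linearly interpolated endpoints. GI50: concentration for 50% inhibition of growth.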 Active and inactive are the calls of the source. No stated cut-off is given here; in the data, active = GI50 up to about 1.1 µM and inactive = higher.
Tests used:
Assay in all cases: inhibition of tumour cell growth, NCI panel, 48 h
UACC-257 = tested on: UACC-257
NCI-H522 = tested on: NCI-H522
DU-145 = tested on: DU-145
SK-MEL-28 = tested on: SK-MEL-28
TK-10 = tested on: TK-10
MDA-MB-435 = tested on: MDA-MB-435
OVCAR-3 = tested on: OVCAR-3
HOP-92 = tested on: HOP-92
SK-MEL-5 = tested on: SK-MEL-5
HOP-62 = tested on: HOP-62
UACC-62 = tested on: UACC-62
MDA-MB-231 = tested on: MDA-MB-231
ACHN = tested on: ACHN
KM12 = tested on: KM12
IGROV-1 = tested on: IGROV-1
A498 = tested on: A498
MCF7 = tested on: MCF7
SN12C = tested on: SN12C
A549 = tested on: A549
BT-549 = tested on: BT-549
T47D = tested on: T47D
RPMI-8226 = tested on: RPMI-8226
U-251 = tested on: U-251
OVCAR-4 = tested on: OVCAR-4
COLO 205 = tested on: COLO 205
MOLT-4 = tested on: MOLT-4
HL-60 = tested on: HL-60
SF-295 = tested on: SF-295
UO-31 = tested on: UO-31
LOX IMVI = tested on: LOX IMVI
SW-620 = tested on: SW-620
HCT-15 = tested on: HCT-15
HCT-116 = tested on: HCT-116
K562 = tested on: K562
SF-539 = tested on: SF-539
PC-3 = tested on: PC-3
OVCAR-5 = tested on: OVCAR-5
EKVX = tested on: EKVX
CCRF-CEM = tested on: CCRF-CEM
Malme-3M = tested on: Malme-3M
M14 = tested on: M14
SF-268 = tested on: SF-268
HCC 2998 = tested on: HCC 2998
NCI-H226 = tested on: NCI-H226
SK-MEL-2 = tested on: SK-MEL-2
HT-29 = tested on: HT-29
MDA-N = tested on: MDA-N
NCI-H23 = tested on: NCI-H23
RXF 393 = tested on: RXF 393
CAKI-1 = tested on: CAKI-1
SK-OV-3 = tested on: SK-OV-3
786-0 = tested on: 786-0
SR = tested on: SR
Hs-578T = tested on: Hs-578T
NCI-H460 = tested on: NCI-H460
SNB-19 = tested on: SNB-19
SNB-75 = tested on: SNB-75
OVCAR-8 = tested on: OVCAR-8

## Cc1ccc(C(=O)/C(C#N)=C/Nc2c(C)n(C)n(-c3ccccc3)c2=O)cc1
UACC-257
  GI50: > 100 µM (inactive)
NCI-H522
  GI50: > 100 µM (inactive)
DU-145
  GI50: > 100 µM (inactive)
SK-MEL-28
  GI50: > 100 µM (inactive)
TK-10
  GI50: > 100 µM (inactive)
MDA-MB-435
  GI50: > 100 µM (inactive)
OVCAR-3
  GI50: > 100 µM (inactive)
HOP-92
  GI50: 46.2 µM (inactive)
SK-MEL-5
  GI50: > 100 µM (inactive)
HOP-62
  GI50: > 100 µM (inactive)
UACC-62
  GI50: > 100 µM (inactive)
MDA-MB-231
  GI50: > 100 µM (inactive)
ACHN
  GI50: > 100 µM (inactive)
KM12
  GI50: > 100 µM (inactive)
IGROV-1
  GI50: > 100 µM (inactive)
A498
  GI50: > 100 µM (inactive)
MCF7
  GI50: > 100 µM (inactive)
SN12C
  GI50: > 100 µM (inactive)
A549
  GI50: > 100 µM (inactive)
BT-549
  GI50: > 100 µM (inactive)
T47D
  GI50: > 100 µM (inactive)
RPMI-8226
  GI50: > 100 µM (inactive)
U-251
  GI50: > 100 µM (inactive)
OVCAR-4
  GI50: > 100 µM (inactive)
COLO 205
  GI50: > 100 µM (inactive)
MOLT-4
  GI50: > 100 µM (inactive)
HL-60
  GI50: > 100 µM (inactive)
SF-295
  GI50: > 100 µM (inactive)
UO-31
  GI50: > 100 µM (inactive)
LOX IMVI
  GI50: > 100 µM (inactive)
SW-620
  GI50: > 100 µM (inactive)
HCT-15
  GI50: > 100 µM
HCT-116
  GI50: > 100 µM (inactive)
K562
  GI50: > 100 µM (inactive)
SF-539
  GI50: > 100 µM (inactive)
PC-3
  GI50: > 100 µM (inactive)
OVCAR-5
  GI50: > 100 µM (inactive)
EKVX
  GI50: > 100 µM (inactive)
CCRF-CEM
  GI50: > 100 µM (inactive)
Malme-3M
  GI50: > 100 µM (inactive)
M14
  GI50: > 100 µM (inactive)
SF-268
  GI50: > 100 µM (inactive)
HCC 2998
  GI50: > 100 µM (inactive)
NCI-H226
  GI50: > 100 µM (inactive)
SK-MEL-2
  GI50: > 100 µM (inactive)
HT-29
  GI50: > 100 µM (inactive)
MDA-N
  GI50: > 100 µM (inactive)
NCI-H23
  GI50: > 100 µM (inactive)
RXF 393
  GI50: > 100 µM (inactive)
CAKI-1
  GI50: > 100 µM (inactive)
SK-OV-3
  GI50: > 100 µM (inactive)
786-0
  GI50: > 100 µM (inactive)
SR
  GI50: > 100 µM (inactive)
Hs-578T
  GI50: > 100 µM (inactive)
NCI-H460
  GI50: > 100 µM (inactive)
SNB-19
  GI50: > 100 µM (inactive)

## CN(CC(=O)Nc1ccccc1C(=O)O)c1ccccc1
UACC-257
  GI50: > 100 µM (inactive)
NCI-H522
  GI50: > 100 µM (inactive)
DU-145
  GI50: > 100 µM (inactive)
SK-MEL-28
  GI50: > 100 µM (inactive)
TK-10
  GI50: > 100 µM (inactive)
OVCAR-3
  GI50: > 100 µM (inactive)
HOP-92
  GI50: > 100 µM (inactive)
SK-MEL-5
  GI50: > 100 µM (inactive)
HOP-62
  GI50: > 100 µM (inactive)
SNB-75
  GI50: > 100 µM (inactive)
MDA-MB-231
  GI50: > 100 µM (inactive)
ACHN
  GI50: > 100 µM (inactive)
KM12
  GI50: > 100 µM (inactive)
IGROV-1
  GI50: > 100 µM (inactive)
OVCAR-8
  GI50: > 100 µM (inactive)
A498
  GI50: > 100 µM (inactive)
MCF7
  GI50: > 100 µM (inactive)
SN12C
  GI50: 40.6 µM (inactive)
A549
  GI50: > 100 µM (inactive)
BT-549
  GI50: > 100 µM (inactive)
T47D
  GI50: > 100 µM (inactive)
RPMI-8226
  GI50: > 100 µM (inactive)
U-251
  GI50: > 100 µM (inactive)
OVCAR-4
  GI50: > 100 µM (inactive)
MOLT-4
  GI50: > 100 µM (inactive)
HL-60
  GI50: > 100 µM (inactive)
SF-295
  GI50: > 100 µM (inactive)
UO-31
  GI50: > 100 µM (inactive)
LOX IMVI
  GI50: > 100 µM (inactive)
SW-620
  GI50: 90.2 µM (inactive)
HCT-15
  GI50: 67.1 µM
HCT-116
  GI50: 84.3 µM (inactive)
K562
  GI50: > 100 µM (inactive)
SF-539
  GI50: > 100 µM (inactive)
PC-3
  GI50: > 100 µM (inactive)
OVCAR-5
  GI50: > 100 µM (inactive)
EKVX
  GI50: > 100 µM (inactive)
CCRF-CEM
  GI50: > 100 µM (inactive)
Malme-3M
  GI50: > 100 µM (inactive)
M14
  GI50: > 100 µM (inactive)
SF-268
  GI50: > 100 µM (inactive)
HCC 2998
  GI50: > 100 µM (inactive)
NCI-H226
  GI50: > 100 µM (inactive)
HT-29
  GI50: > 100 µM (inactive)
MDA-N
  GI50: > 100 µM (inactive)
NCI-H23
  GI50: > 100 µM (inactive)
RXF 393
  GI50: > 100 µM (inactive)
CAKI-1
  GI50: > 100 µM (inactive)
786-0
  GI50: > 100 µM (inactive)
SR
  GI50: > 100 µM (inactive)
Hs-578T
  GI50: > 100 µM (inactive)
NCI-H460
  GI50: > 100 µM (inactive)
SNB-19
  GI50: > 100 µM (inactive)

Source: ChEMBL document CHEMBL1201862, “PubChem BioAssay data set” (2004)
